Data published in ChEMBL document CHEMBL3881526, “Selective androgen receptor modulators and method of use thereof” (2007).
Activity calls are given as the source filed them. The rule behind the calls is not given here.

What was measured:
Rattus norvegicus [1] = assay: Androgenic activity in ORX Sprague-Dawley rat assessed as restoration of seminal vesicles weight at 100 ug/day delivered at constant rate for 14 days via subcutaneous osmotic pumps; format: functional
Rattus norvegicus [2] = assay: Anabolic activity in ORX Sprague-Dawley rat assessed as restoration of levator ani muscle weight at 100 ug/day delivered at constant rate for 14 days via subcutaneous osmotic pumps; format: functional, tissue-based
Rattus norvegicus [3] = assay: Androgenic activity in ORX Sprague-Dawley rat assessed as restoration of prostate weight at 100 ug/day delivered at constant rate for 14 days via subcutaneous osmotic pumps; format: functional
Rattus norvegicus [4] = assay: Suppression of serum FSH in ORX Sprague-Dawley rat at 0.1 to 1 mg/day delivered at constant rate for 14 days via subcutaneous osmotic pumps; format: functional
Rattus norvegicus [5] = assay: Androgenic activity in ORX Sprague-Dawley rat assessed as restoration of prostate weight at 0.1 to 1 ug/day delivered at constant rate for 14 days via subcutaneous osmotic pumps; format: functional
Rattus norvegicus [6] = assay: Androgenic activity in ORX Sprague-Dawley rat assessed as restoration of seminal vesicles weight at 0.1 to 1 ug/day delivered at constant rate for 14 days via subcutaneous osmotic pumps; format: functional
Rattus norvegicus [7] = assay: Anabolic activity in ORX Sprague-Dawley rat assessed as restoration of levator ani muscle weight at 0.1 to 1 ug/day delivered at constant rate for 14 days via subcutaneous osmotic pumps; format: functional
Bone marrow cell = assay: Induction of differentiation of rat primary bone marrow cells toward osteoblast lineage assessed as ALP activity at 1 uM by spectrophotometric analysis; format: functional, cell-based

SMILES | Activity (Rattus norvegicus [1]) | Activity (Rattus norvegicus [2]) | Activity (Rattus norvegicus [3]) | Activity (Rattus norvegicus [4]) | Activity (Rattus norvegicus [5]) | Activity (Rattus norvegicus [6]) | Activity (Rattus norvegicus [7]) | Activity (Bone marrow cell)
CCC(=O)O[C@H]1CC[C@H]2[C@@H]3CCC4=CC(=O)CC[C@]4(C)[C@H]3CC[C@]12C | Active | Active | Active | Active |  |  |  | 
C[C@](O)(COc1ccc(Br)cc1)C(=O)Nc1ccc([N+](=O)[O-])c(C(F)(F)F)c1 |  |  |  |  | <40% | <40% | Active | 
C[C@]12CCC(=O)C[C@@H]1CC[C@@H]1[C@@H]2CC[C@]2(C)[C@@H](O)CC[C@@H]12 |  |  |  |  |  |  |  | Active
C[C@](O)(COc1ccc(Cl)cc1)C(=O)Nc1ccc([N+](=O)[O-])c(C(F)(F)F)c1 |  |  |  |  | <20% | <20% | Active | 
C[C@](O)(COc1ccc(I)cc1)C(=O)Nc1ccc([N+](=O)[O-])c(C(F)(F)F)c1 |  |  |  |  | <40% | <40% | Active | 
C[C@](O)(COc1ccc(Cl)cc1)C(=O)Nc1ccc(C#N)c(C(F)(F)F)c1 |  |  |  |  | Dose-dependent effect | Dose-dependent effect | Active | 
